Test results: US20260001928A1 (CORTERIA PHARMACEUTICALS, priority 2022, published 2026)
*1 amine or outer side, *2 acyl side, *3 side chain or, on linkers, in order; H or OH if unused. Where a SMILES comes first, the peptide text is derived from it. Side-chain parts run from the residue outwards. [ ]: non-standard residue; d: D form. The star is where a group is joined. C20 diacid = O=C(O)CCCCCCCCCCCCCCCCCCC(=O)*; γGlu = O=C(O)[C@H](CCC(=O)[*:2])N[*:1]; NMeI = CC[C@H](C)[C@H](NC)C(=O)O; Lauroyl = CCCCCCCCCCCC(=O)*; Api = NC1(C(=O)O)CCNCC1; Pentanoyl = CCCCC(=O)*; Aib = CC(C)(N)C(=O)O

Legend:
human CRF2a receptor = target: T1, human CRF2a receptor (Homo sapiens, UniProt Q13324); assay: Activity at human CRF2a receptor, cAMP functional assay in TeloHEAC cells; format: cell-based; settings: TeloHEAC cells stably expressing human CRF2a receptor, relative to urocortin 2 (100 nM = 100%)
T1 construct: expressed in transfected cells; host or cells: TeloHEAC cells
T1 sequence (Q13324 1-411): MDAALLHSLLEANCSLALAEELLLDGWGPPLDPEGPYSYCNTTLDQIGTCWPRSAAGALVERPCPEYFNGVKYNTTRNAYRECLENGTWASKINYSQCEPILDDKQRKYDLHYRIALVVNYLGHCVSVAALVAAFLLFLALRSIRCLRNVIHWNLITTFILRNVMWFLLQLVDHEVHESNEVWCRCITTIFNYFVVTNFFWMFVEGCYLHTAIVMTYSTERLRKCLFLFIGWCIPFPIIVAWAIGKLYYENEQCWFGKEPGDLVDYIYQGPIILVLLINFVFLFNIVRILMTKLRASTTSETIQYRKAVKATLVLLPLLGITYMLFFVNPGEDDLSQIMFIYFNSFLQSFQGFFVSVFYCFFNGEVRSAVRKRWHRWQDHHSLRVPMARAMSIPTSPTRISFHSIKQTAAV
Summary of the method: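 TeloHEAC cells stably expressing human CRF2a (10000 cells/well) were treated with 16-point 1:2 compound dilutions in HBSS/20 mM HEPES with IBMX for 30 min at 37° C. cAMP was read by HTRF (665/620 nm ratio). EC50 was the concentration giving 50% activation, with 100 nM urocortin 2 set as 100%.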

CFR1R receptor = target: T2, CFR1R receptor (Homo sapiens, UniProt P34998); assay: Activity at anti-target CFR1R receptor, cAMP assay in CRF1R-overexpression CHO-K1 cells; format: cell-based; settings: 100% = Sauvagine at 100 nM
T2 construct: host or cells: CHO-K1 (clone 2)
T2 sequence (P34998 24-415): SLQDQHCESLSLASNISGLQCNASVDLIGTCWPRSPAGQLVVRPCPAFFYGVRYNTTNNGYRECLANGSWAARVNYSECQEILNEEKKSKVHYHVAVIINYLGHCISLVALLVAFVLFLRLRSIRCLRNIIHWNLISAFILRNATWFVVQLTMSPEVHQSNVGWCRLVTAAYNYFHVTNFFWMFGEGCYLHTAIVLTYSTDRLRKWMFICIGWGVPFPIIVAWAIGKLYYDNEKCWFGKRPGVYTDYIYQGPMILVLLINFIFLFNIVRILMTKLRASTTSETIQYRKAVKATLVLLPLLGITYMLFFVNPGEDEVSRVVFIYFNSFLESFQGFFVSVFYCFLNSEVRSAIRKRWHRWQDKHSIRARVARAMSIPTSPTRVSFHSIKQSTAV
Summary of the method: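 Run as for the TeloHAEC line, except the full-activation control well received Sauvagine (100 nM) and final density was 4000 cells/well. Cells from clone 2 came from frozen aliquots of near-confluent cultures.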

EC50 (human CRF2a receptor)	Emax (% I) (CFR1R receptor)	SMILES
0.15 nM	63 % I	CC[C@H](C)[C@H](NC(C)=O)C(=O)N[C@H](C(=O)N[C@@H](CC(C)C)C(=O)N[C@@H](CO)C(=O)N[C@@H](CC(C)C)C(=O)N[C@@H](CC(=O)O)C(=O)N[C@@H](C(=O)N1CCC[C@H]1C(=O)N[C@H](C(=O)N[C@@H](CCCCN)C(=O)N[C@@H](CC(C)C)C(=O)N[C@@H](CCCCNC(=O)CC[C@H](NC(=O)CCCCCCCCCCCCCCCCCCC(=O)O)C(=O)O)C(=O)N[C@@H](CCCCN)C(=O)N[C@H](C(=O)N[C@@H](CC(C)C)C(=O)N[C@@H](CC(C)C)C(=O)N[C@@H](CCC(=O)O)C(=O)N[C@@H](CCC(N)=O)C(=O)N[C@@H](CCC(=O)O)C(=O)N[C@@H](CCCCN)C(=O)N[C@@H](CCC(N)=O)C(=O)N[C@@H](CCCCN)C(=O)NC(C)(C)C(=O)N[C@@H](CCC(N)=O)C(=O)N[C@@H](CCCNC(=N)N)C(=O)N[C@@H](CCC(=O)O)C(=O)N[C@@H](CCC(N)=O)C(=O)N[C@@H](C)C(=O)N[C@@H](CCC(=O)O)C(=O)N[C@H](C(=O)N[C@@H](CC(N)=O)C(=O)NC1(C(=O)N[C@@H](CCC(N)=O)C(=O)N[C@H](C(=O)N[C@@H](CC(C)C)C(=O)N[C@@H](C)C(=O)N[C@@H](CCC(N)=O)C(=O)N[C@H](C(N)=O)C(C)C)[C@@H](C)CC)CCNCC1)[C@@H](C)O)[C@@H](C)CC)[C@@H](C)CC)C(C)C)C(C)C [compound 208] (Ac-IVLSLD[dV]PIKLK([γGlu-C20 diacid])KILLEQEKQK[Aib]QREQAETN[Api]QILAQV-NH2)
0.15 nM	73 % I	CC[C@H](C)[C@H](NC(C)=O)C(=O)N[C@H](C(=O)N[C@@H](CC(C)C)C(=O)N[C@@H](CO)C(=O)N[C@@H](CC(C)C)C(=O)N[C@@H](CC(=O)O)C(=O)N[C@@H](C(=O)N1CCC[C@H]1C(=O)N[C@H](C(=O)N[C@@H](CCCCN)C(=O)N[C@@H](CC(C)C)C(=O)N[C@@H](CCCCNC(=O)CC[C@H](NC(=O)CCCCCCCCCCCCCCCCCCC(=O)O)C(=O)O)C(=O)N[C@@H](CCCCN)C(=O)N[C@H](C(=O)N[C@@H](CC(C)C)C(=O)N[C@@H](CC(C)C)C(=O)N[C@@H](CCC(=O)O)C(=O)N[C@@H](CCC(N)=O)C(=O)N[C@@H](CCC(=O)O)C(=O)N[C@@H](C)C(=O)N[C@@H](CCC(N)=O)C(=O)N[C@@H](CCCCN)C(=O)N[C@@H](CCCCN)C(=O)N[C@@H](CCC(N)=O)C(=O)N[C@@H](CCCNC(=N)N)C(=O)N[C@@H](CCC(=O)O)C(=O)N[C@@H](CCC(N)=O)C(=O)N[C@@H](C)C(=O)N[C@@H](CCC(=O)O)C(=O)N[C@H](C(=O)N[C@@H](CC(N)=O)C(=O)NC(C)(C)C(=O)N[C@@H](CCC(N)=O)C(=O)N[C@H](C(=O)N[C@@H](CC(C)C)C(=O)N[C@@H](C)C(=O)N[C@@H](CCC(N)=O)C(=O)N[C@H](C(N)=O)C(C)C)[C@@H](C)CC)[C@@H](C)O)[C@@H](C)CC)[C@@H](C)CC)C(C)C)C(C)C [compound 211] (Ac-IVLSLD[dV]PIKLK([γGlu-C20 diacid])KILLEQEAQKKQREQAETN[Aib]QILAQV-NH2)
0.05 nM	61 % I	CC[C@H](C)[C@H](NC)C(=O)N[C@H](C(=O)N[C@@H](CC(C)C)C(=O)N[C@@H](CO)C(=O)N[C@@H](CC(C)C)C(=O)N[C@@H](CC(=O)O)C(=O)N[C@@H](C(=O)N1CCC[C@H]1C(=O)N[C@H](C(=O)N[C@@H](CCCCN)C(=O)N[C@@H](CC(C)C)C(=O)N[C@@H](CCCCNC(=O)CC[C@H](NC(=O)CCCCCCCCCCCCCCCCCCC(=O)O)C(=O)O)C(=O)N[C@@H](CCCCN)C(=O)N[C@H](C(=O)N[C@@H](CC(C)C)C(=O)N[C@@H](CC(C)C)C(=O)N[C@@H](CCC(=O)O)C(=O)N[C@@H](CCC(N)=O)C(=O)N[C@@H](CCC(=O)O)C(=O)N[C@@H](C)C(=O)N[C@@H](CCC(N)=O)C(=O)N[C@@H](CCCCN)C(=O)N[C@@H](CCCCN)C(=O)N[C@@H](CCC(N)=O)C(=O)N[C@@H](CCCNC(=N)N)C(=O)N[C@@H](CCC(=O)O)C(=O)N[C@@H](CCC(N)=O)C(=O)N[C@@H](C)C(=O)N[C@@H](CCC(=O)O)C(=O)N[C@H](C(=O)N[C@@H](CC(N)=O)C(=O)NC(C)(C)C(=O)N[C@@H](CCC(N)=O)C(=O)N[C@H](C(=O)N[C@@H](CC(C)C)C(=O)N[C@@H](C)C(=O)N[C@@H](CCC(N)=O)C(=O)N[C@H](C(N)=O)C(C)C)[C@@H](C)CC)[C@@H](C)O)[C@@H](C)CC)[C@@H](C)CC)C(C)C)C(C)C [compound 216] (H-[NMeI]VLSLD[dV]PIKLK([γGlu-C20 diacid])KILLEQEAQKKQREQAETN[Aib]QILAQV-NH2)
0.18 nM	79 % I	CCCCC(=O)N[C@H](C(=O)N[C@@H](CC(C)C)C(=O)N[C@@H](CO)C(=O)N[C@@H](CC(C)C)C(=O)N[C@@H](CC(=O)O)C(=O)N[C@@H](C(=O)N1CCC[C@H]1C(=O)N[C@H](C(=O)N[C@@H](CCCCN)C(=O)N[C@@H](CC(C)C)C(=O)N[C@@H](CCCCNC(=O)CC[C@H](NC(=O)CCCCCCCCCCCCCCCCCCC(=O)O)C(=O)O)C(=O)N[C@@H](CCCCN)C(=O)N[C@H](C(=O)N[C@@H](CC(C)C)C(=O)N[C@@H](CC(C)C)C(=O)N[C@@H](CCC(=O)O)C(=O)N[C@@H](CCC(N)=O)C(=O)N[C@@H](CCC(=O)O)C(=O)N[C@@H](C)C(=O)N[C@@H](CCC(N)=O)C(=O)N[C@@H](CCCCN)C(=O)N[C@@H](CCCCN)C(=O)N[C@@H](CCC(N)=O)C(=O)N[C@@H](CCCNC(=N)N)C(=O)N[C@@H](CCC(=O)O)C(=O)N[C@@H](CCC(N)=O)C(=O)N[C@@H](C)C(=O)N[C@@H](CCC(=O)O)C(=O)N[C@H](C(=O)N[C@@H](CC(N)=O)C(=O)NC(C)(C)C(=O)N[C@@H](CCC(N)=O)C(=O)N[C@H](C(=O)N[C@@H](CC(C)C)C(=O)N[C@@H](C)C(=O)N[C@@H](CCC(N)=O)C(=O)N[C@H](C(N)=O)C(C)C)[C@@H](C)CC)[C@@H](C)O)[C@@H](C)CC)[C@@H](C)CC)C(C)C)C(C)C [compound 221] (Pentanoyl-VLSLD[dV]PIKLK([γGlu-C20 diacid])KILLEQEAQKKQREQAETN[Aib]QILAQV-NH2)
0.07 nM	66 % I	CCCCCCCCCCCC(=O)N[C@H](C(=O)N[C@@H](CC(C)C)C(=O)N[C@@H](CO)C(=O)N[C@@H](CC(C)C)C(=O)N[C@@H](CC(=O)O)C(=O)N[C@@H](C(=O)N1CCC[C@H]1C(=O)N[C@H](C(=O)N[C@@H](CCCCN)C(=O)N[C@@H](CC(C)C)C(=O)N[C@@H](CCCCNC(=O)CC[C@H](NC(=O)CCCCCCCCCCCCCCCCCCC(=O)O)C(=O)O)C(=O)N[C@@H](CCCCN)C(=O)N[C@H](C(=O)N[C@@H](CC(C)C)C(=O)N[C@@H](CC(C)C)C(=O)N[C@@H](CCC(=O)O)C(=O)N[C@@H](CCC(N)=O)C(=O)N[C@@H](CCC(=O)O)C(=O)N[C@@H](CCCCN)C(=O)N[C@@H](CCC(N)=O)C(=O)N[C@@H](CCCCN)C(=O)N[C@@H](CCCCN)C(=O)N[C@@H](CCC(N)=O)C(=O)N[C@@H](CCCNC(=N)N)C(=O)N[C@@H](CCC(=O)O)C(=O)N[C@@H](CCC(N)=O)C(=O)N[C@@H](C)C(=O)N[C@@H](CCC(=O)O)C(=O)N[C@H](C(=O)N[C@@H](CC(N)=O)C(=O)NC(C)(C)C(=O)N[C@@H](CCC(N)=O)C(=O)N[C@H](C(=O)N[C@@H](CC(C)C)C(=O)N[C@@H](C)C(=O)N[C@@H](CCC(N)=O)C(=O)N[C@H](C(N)=O)C(C)C)[C@@H](C)CC)[C@@H](C)O)[C@@H](C)CC)[C@@H](C)CC)C(C)C)C(C)C [compound 224] (Lauroyl-VLSLD[dV]PIKLK([γGlu-C20 diacid])KILLEQEKQKKQREQAETN[Aib]QILAQV-NH2)
